Key:
Format in all cases: in vivo
[1] = system: corn (Krasnodar 385 MV variety); test: Corn seed treatment with BHMPA salts: germination energy and germination rate
How it was run: (§1)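 Corn, winter wheat and rice seeds (50 per dish, on filter paper) were soaked for 1 h in BHMPA or its metal salts at 1·10^−6-1·10^−12%, with water as control. Germination energy was read on day 4 and germination rate on day 8 for wheat and day 7 for rice and corn, following GOST 12038-84, as the mean of four replicates.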

[2] = system: rice (Diamant variety); test: Rice seed treatment with BHMPA salts: germination energy and germination rate
How it was run: as §1

[3] = system: rice (Diamant variety); test: Rice seed treatment with BHMPA salts: germinating power
How it was run: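 Seeds (50 per Petri dish on two layers of filter paper) soaked 1 h in BHMPA or its Ca, Mg, Na, Co, Mn, Cu or Zn salts at 1·10^−6-1·10^−12%, with water controls. Germination energy read on day 4, germination on day 8 (wheat) or day 7 (rice, corn), as % means of four replicates. Germinating power taken as root and sprout length plus wet and dry mass per 100 seedlings.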

[4] = comparative study vs Melaphen, 1·10^−10% solution
[5] = rice seed treatment, solution 1 · 10^−11%
[6] = seed treatment, concentration 1 · 10^−6%
[7] = seed treatment, concentration 1 · 10^−7%
[8] = seed treatment, concentration 1 · 10^−8%
[9] = seed treatment, concentration 1 · 10^−9%
[10] = seed treatment, concentration 1 · 10^−10%
[11] = seed treatment, concentration 1 · 10^−11%
[12] = seed treatment, concentration 1 · 10^−12%
[13] = rice seed treatment, comparison with Melaphen (Table XXXIII), solution 1 · 10^−11%
[14] = rice seeds, solution concentration 1 · 10^−6%
[15] = rice seeds, solution concentration 1 · 10^−7%
[16] = rice seeds, solution concentration 1 · 10^−8%
[17] = rice seeds, solution concentration 1 · 10^−9%
[18] = rice seeds, solution concentration 1 · 10^−10%
[19] = rice seeds, solution concentration 1 · 10^−11%
[20] = rice seeds, solution concentration 1 · 10^−12%
[21] = rice, vs control, 1·10^−11% solution

O=P([O-])(CO)CO.[Na+] [Na-salt, Sodium BHMPA Salt]
Germination energy ([1]; 1·10^−6% solution): 75.7% | Germination rate ([1]; 1·10^−6% solution): 78.3% | Germination energy ([1]; 1·10^−7% solution): 78.0% | Germination rate ([1]; 1·10^−7% solution): 81.8% | Germination energy ([1]; 1·10^−8% solution): 84.8% | Germination rate ([1]; 1·10^−8% solution): 87.5% | Germination energy ([1]; 1·10^−9% solution): 87.7% | Germination rate ([1]; 1·10^−9% solution): 91.7% | Germination energy ([1]; 1·10^−10% solution): 89.7% | Germination rate ([1]; 1·10^−10% solution): 93.0% | Germination energy ([1]; 1·10^−11% solution): 86.8% | Germination rate ([1]; 1·10^−11% solution): 89.5% | Germination energy ([1]; 1·10^−12% solution): 82.0% | Germination rate ([1]; 1·10^−12% solution): 85.5% | Germination energy [1, 4]: 85.7% | Germination rate [1, 4]: 94.0% | Germination energy, % [2, 5]: 85.0% | Germination rate, % [2, 5]: 92.0% | Germination energy ([2]; rice, 1·10^−11% solution): 84.0% | Germination rate ([2]; rice, 1·10^−11% solution): 90.3% | Germination energy [2, 6]: 74.7% | Germination rate [2, 6]: 80.3% | Germination energy [2, 7]: 76.7% | Germination rate [2, 7]: 82.8% | Germination energy [2, 8]: 78.3% | Germination rate [2, 8]: 84.0% | Germination energy [2, 9]: 80.0% | Germination rate [2, 9]: 86.3% | Germination energy [2, 10]: 82.3% | Germination rate [2, 10]: 88.0% | Germination energy [2, 11]: 84.0% | Germination rate [2, 11]: 90.3% | Germination energy [2, 12]: 79.0% | Germination rate [2, 12]: 85.3% | optimum concentration for treating rice seeds before sowing ([3]; rice): 1·10^−11% | Length, root [3, 13]: 5.9 cm | Length, root, + % to control [3, 13]: 23% | Length, sprout [3, 13]: 3.4 cm | Length, sprout, + % to control [3, 13]: 46% | Mass, dry, root [3, 13]: 0.22 g/100 plantlings | Mass, dry, root, + % to control [3, 13]: 5% | Mass, dry, sprout [3, 13]: 0.26 g/100 plantlings | Mass, dry, sprout, + % to control [3, 13]: 24% | Mass, wet, root [3, 13]: 1.31 g/100 plantlings | Mass, wet, root, + % to control [3, 13]: 34% | Mass, wet, sprout [3, 13]: 2.22 g/100 plantlings | Mass, wet, sprout, + % to control [3, 13]: 47% | Length, root [3, 14]: 5.4 cm | Length, root, + % to control [3, 14]: 4% | Length, sprout [3, 14]: 2.3 cm | Length, sprout, + % to control [3, 14]: 9.5% | Mass, dry, root [3, 14]: 0.21 g/100 plantlings | Mass, dry, root, + % to control [3, 14]: 5% | Mass, dry, sprout [3, 14]: 0.28 g/100 plantlings | Mass, dry, sprout, + % to control [3, 14]: 8% | Mass, wet, root [3, 14]: 1.06 g/100 plantlings | Mass, wet, root, + % to control [3, 14]: 16.5% | Mass, wet, sprout [3, 14]: 1.73 g/100 plantlings | Mass, wet, sprout, + % to control [3, 14]: 5.5% | Length, root [3, 15]: 5.6 cm | Length, root, + % to control [3, 15]: 8% | Length, sprout [3, 15]: 2.4 cm | Length, sprout, + % to control [3, 15]: 14% | Mass, dry, root [3, 15]: 0.22 g/100 plantlings | Mass, dry, root, + % to control [3, 15]: 10% | Mass, dry, sprout [3, 15]: 0.30 g/100 plantlings | Mass, dry, sprout, + % to control [3, 15]: 15% | Mass, wet, root [3, 15]: 1.10 g/100 plantlings | Mass, wet, root, + % to control [3, 15]: 21% | Mass, wet, sprout [3, 15]: 1.81 g/100 plantlings | Mass, wet, sprout, + % to control [3, 15]: 10% | Length, root [3, 16]: 5.8 cm | Length, root, + % to control [3, 16]: 11.5% | Length, sprout [3, 16]: 2.6 cm | Length, sprout, + % to control [3, 16]: 24% | Mass, dry, root [3, 16]: 0.23 g/100 plantlings | Mass, dry, root, + % to control [3, 16]: 15% | Mass, dry, sprout [3, 16]: 0.31 g/100 plantlings | Mass, dry, sprout, + % to control [3, 16]: 19% | Mass, wet, root [3, 16]: 1.14 g/100 plantlings | Mass, wet, root, + % to control [3, 16]: 25% | Mass, wet, sprout [3, 16]: 1.89 g/100 plantlings | Mass, wet, sprout, + % to control [3, 16]: 15% | Length, root [3, 17]: 6.0 cm | Length, root, + % to control [3, 17]: 15% | Length, sprout [3, 17]: 2.8 cm | Length, sprout, + % to control [3, 17]: 33% | Mass, dry, root [3, 17]: 0.25 g/100 plantlings | Mass, dry, root, + % to control [3, 17]: 25% | Mass, dry, sprout [3, 17]: 0.33 g/100 plantlings | Mass, dry, sprout, + % to control [3, 17]: 27% | Mass, wet, root [3, 17]: 1.17 g/100 plantlings | Mass, wet, root, + % to control [3, 17]: 28.5% | Mass, wet, sprout [3, 17]: 2.00 g/100 plantlings | Mass, wet, sprout, + % to control [3, 17]: 22% | Length, root [3, 18]: 6.3 cm | Length, root, + % to control [3, 18]: 21% | Length, sprout [3, 18]: 3.5 cm | Length, sprout, + % to control [3, 18]: 58% | Mass, dry, root [3, 18]: 0.27 g/100 plantlings | Mass, dry, root, + % to control [3, 18]: 35% | Mass, dry, sprout [3, 18]: 0.35 g/100 plantlings | Mass, dry, sprout, + % to control [3, 18]: 35% | Mass, wet, root [3, 18]: 1.26 g/100 plantlings | Mass, wet, root, + % to control [3, 18]: 38% | Mass, wet, sprout [3, 18]: 2.18 g/100 plantlings | Mass, wet, sprout, + % to control [3, 18]: 33% | Length, root [3, 19]: 6.4 cm | Length, root, + % to control [3, 19]: 23% | Length, sprout [3, 19]: 4.0 cm | Length, sprout, + % to control [3, 19]: 90% | Mass, dry, root [3, 19]: 0.30 g/100 plantlings | Mass, dry, root, + % to control [3, 19]: 50% | Mass, dry, sprout [3, 19]: 0.39 g/100 plantlings | Mass, dry, sprout, + % to control [3, 19]: 50% | Mass, wet, root [3, 19]: 1.35 g/100 plantlings | Mass, wet, root, + % to control [3, 19]: 48% | Mass, wet, sprout [3, 19]: 2.30 g/100 plantlings | Mass, wet, sprout, + % to control [3, 19]: 40% | Length, root [3, 20]: 6.2 cm | Length, root, + % to control [3, 20]: 19% | Length, sprout [3, 20]: 3.6 cm | Length, sprout, + % to control [3, 20]: 71% | Mass, dry, root [3, 20]: 0.26 g/100 plantlings | Mass, dry, root, + % to control [3, 20]: 30% | Mass, dry, sprout [3, 20]: 0.33 g/100 plantlings | Mass, dry, sprout, + % to control [3, 20]: 27% | Mass, wet, root [3, 20]: 1.18 g/100 plantlings | Mass, wet, root, + % to control [3, 20]: 30% | Mass, wet, sprout [3, 20]: 2.23 g/100 plantlings | Mass, wet, sprout, + % to control [3, 20]: 36% | dry mass of the roots increased by [3, 21]: 50% | dry mass of the sprouts increased by [3, 21]: 50% | length of the root increased by [3, 21]: 23% | length of the sprout increased by [3, 21]: 90% | wet mass of the roots increased by [3, 21]: 48% | wet mass of the sprouts increased by [3, 21]: 40%
